Reference: US8563547B2, “(6,7-dihydro-2-nitro-5H-imidazol[2,1-b][1,3]oxazin-6-yl) amide compounds, preparation methods and uses thereof” (Shanghai Sun-Sail Pharmaceutical Science & Technology Co., …, priority 2010, dated 2013)
≈ marks a conversion by molar mass, not a printed value.

What was measured:
Assay in all cases: microbe, parasite or virus in culture
Assay type in all cases: cell-based, Mycobacterium tuberculosis
[1] = test system: strain 261: resistant to rifampicin (WHO QC bacterium); details: for MIC: Mycobacterium tuberculosis, read-out: drug-resistance bacteria MIC, 261 (R mono-resistance); for MIC value, times as that of PA-824, rifampicin resistance 261: strain 261, relative to PA-824
[2] = test system: strain 242: resistant to isoniazide (WHO QC bacterium); details: for MIC: Mycobacterium tuberculosis, read-out: drug-resistance bacteria MIC, 242 (H mono-resistance); for MIC value, times as that of PA-824, isoniazide resistance 242: strain 242, relative to PA-824
[3] = test system: strain 246: resistant to streptomycin (WHO QC bacterium); details: for MIC: Mycobacterium tuberculosis, read-out: drug-resistance bacteria MIC, 246 (S mono-resistance); for MIC value, times as that of PA-824, streptomycin resistance 246: strain 246, relative to PA-824

## O=C(CN1CCC(Oc2ccc(OC(F)(F)F)cc2)CC1)N[C@@H]1COc2nc([N+](=O)[O-])cn2C1 [Compound 1, (S)-N-(6,7-dihydro-2-nitro-5H-imidazo [2,1-b][1,3]oxazin-6-yl)-2-(4-(4-(trifluoromethoxy)phenoxy)piperid-1-yl)acetamide]
[1]
  MIC: < 0.0312 µg/mL
  MIC value, times as that of PA-824, rifampicin resistance 261: 16 times
[2]
  MIC: 0.5 µg/mL (≈ 1.03 µM)
  MIC value, times as that of PA-824, isoniazide resistance 242: 2 times
[3]
  MIC: < 0.0312 µg/mL
  MIC value, times as that of PA-824, streptomycin resistance 246: 16 times

## O=C(CCN1CCC(Oc2ccc(OC(F)(F)F)cc2)CC1)N[C@@H]1COc2nc([N+](=O)[O-])cn2C1 [Compound 22, (S)-N-(6,7-dihydro-2-nitro-5H-imidazo [2,1-b][1,3]oxazin-6-yl)-3-(4-(4-(trifluoromethoxy)phenoxy)piperid-1-yl)propanamide]
[1]
  MIC: < 0.0312 µg/mL
  MIC value, times as that of PA-824, rifampicin resistance 261: 16 times
[2]
  MIC: 0.5 µg/mL (≈ 1 µM)
  MIC value, times as that of PA-824, isoniazide resistance 242: 2 times
[3]
  MIC: 0.0625 µg/mL (≈ 0.125 µM)
  MIC value, times as that of PA-824, streptomycin resistance 246: 8 times

## O=[N+]([O-])c1cn2c(n1)OC[C@@H](OCc1ccc(OC(F)(F)F)cc1)C2 [PA-824, reference compound]
[1]
  MIC: 0.5 µg/mL (≈ 1.39 µM)
[2]
  MIC: 1 µg/mL (≈ 2.78 µM)
[3]
  MIC: 0.5 µg/mL (≈ 1.39 µM)
